Assays:
Type in all cases: functional
Settings in all cases: read-out: Activity
[1] = test system: HCT-15; test: Growth inhibition of human HCT-15 cells assessed as cell growth at 10 uM incubated for 48 hrs by sulforhodamine B assay relative to control
[2] = test system: SF-268; test: Growth inhibition of human SF-268 cells assessed as cell growth at 10 uM incubated for 48 hrs by sulforhodamine B assay relative to control
[3] = test system: SNB-75; test: Growth inhibition of human SNB-75 cells assessed as cell growth at 10 uM incubated for 48 hrs by sulforhodamine B assay relative to control
[4] = test system: BT-549; test: Growth inhibition of human BT-549 cells assessed as cell growth at 10 uM incubated for 48 hrs by sulforhodamine B assay relative to control
[5] = test system: SK-MEL-2; test: Growth inhibition of human SK-MEL-2 cells assessed as cell growth at 10 uM incubated for 48 hrs by sulforhodamine B assay relative to control
[6] = test system: KM12; test: Growth inhibition of human KM12 cells assessed as cell growth at 10 uM incubated for 48 hrs by sulforhodamine B assay relative to control
[7] = test system: NCI-H522; test: Growth inhibition of human NCI-H522 cells assessed as cell growth at 10 uM incubated for 48 hrs by sulforhodamine B assay relative to control
[8] = test system: NCI-H23; test: Growth inhibition of human NCI-H23 cells assessed as cell growth at 10 uM incubated for 48 hrs by sulforhodamine B assay relative to control
[9] = test system: ACHN; test: Growth inhibition of human ACHN cells assessed as cell growth at 10 uM incubated for 48 hrs by sulforhodamine B assay relative to control
[10] = test system: RXF 393; test: Growth inhibition of human RXF 393 cells assessed as cell growth at 10 uM incubated for 48 hrs by sulforhodamine B assay relative to control
[11] = test system: OVCAR-3; test: Growth inhibition of human OVCAR-3 cells assessed as cell growth at 10 uM incubated for 48 hrs by sulforhodamine B assay relative to control
[12] = test system: UACC-62; test: Growth inhibition of human UACC-62 cells assessed as cell growth at 10 uM incubated for 48 hrs by sulforhodamine B assay relative to control
[13] = test system: CCRF-CEM; test: Growth inhibition of human CCRF-CEM cells assessed as cell growth at 10 uM incubated for 48 hrs by sulforhodamine B assay relative to control
[14] = test system: HCC 2998; test: Growth inhibition of human HCC 2998 cells assessed as cell growth at 10 uM incubated for 48 hrs by sulforhodamine B assay relative to control
[15] = test system: Malme-3M; test: Growth inhibition of human Malme-3M cells assessed as cell growth at 10 uM incubated for 48 hrs by sulforhodamine B assay relative to control
[16] = test system: OVCAR-5; test: Growth inhibition of human OVCAR-5 cells assessed as cell growth at 10 uM incubated for 48 hrs by sulforhodamine B assay relative to control
[17] = test system: COLO 205; test: Growth inhibition of human COLO 205 cells assessed as cell growth at 10 uM incubated for 48 hrs by sulforhodamine B assay relative to control
[18] = test system: CAKI-1; test: Growth inhibition of human CAKI-1 cells assessed as cell growth at 10 uM incubated for 48 hrs by sulforhodamine B assay relative to control
[19] = test system: HCT-116; test: Growth inhibition of human HCT-116 cells assessed as cell growth at 10 uM incubated for 48 hrs by sulforhodamine B assay relative to control
[20] = test system: NCI-H322M; test: Growth inhibition of human NCI-H322M cells assessed as cell growth at 10 uM incubated for 48 hrs by sulforhodamine B assay relative to control
[21] = test system: K562; test: Growth inhibition of human K562 cells assessed as cell growth at 10 uM incubated for 48 hrs by sulforhodamine B assay relative to control
[22] = test system: SK-OV-3; test: Growth inhibition of human SK-OV-3 cells assessed as cell growth at 10 uM incubated for 48 hrs by sulforhodamine B assay relative to control
[23] = test system: IGROV-1; test: Growth inhibition of human IGROV-1 cells assessed as cell growth at 10 uM incubated for 48 hrs by sulforhodamine B assay relative to control
[24] = test system: M14; test: Growth inhibition of human M14 cells assessed as cell growth at 10 uM incubated for 48 hrs by sulforhodamine B assay relative to control
[25] = test system: DU-145; test: Growth inhibition of human DU-145 cells assessed as cell growth at 10 uM incubated for 48 hrs by sulforhodamine B assay relative to control
[26] = test system: MDA-MB-468; test: Growth inhibition of human MDA-MB-468 cells assessed as cell growth at 10 uM incubated for 48 hrs by sulforhodamine B assay relative to control
[27] = test system: PC-3; test: Growth inhibition of human PC-3 cells assessed as cell growth at 10 uM incubated for 48 hrs by sulforhodamine B assay relative to control
[28] = test system: MOLT-4; test: Growth inhibition of human MOLT-4 cells assessed as cell growth at 10 uM incubated for 48 hrs by sulforhodamine B assay relative to control
[29] = test system: SF-539; test: Growth inhibition of human SF-539 cells assessed as cell growth at 10 uM incubated for 48 hrs by sulforhodamine B assay relative to control
[30] = test system: HOP-62; test: Growth inhibition of human HOP-62 cells assessed as cell growth at 10 uM incubated for 48 hrs by sulforhodamine B assay relative to control
[31] = test system: OVCAR-8; test: Growth inhibition of human OVCAR-8 cells assessed as cell growth at 10 uM incubated for 48 hrs by sulforhodamine B assay relative to control
[32] = test system: T47D; test: Growth inhibition of human T47D cells assessed as cell growth at 10 uM incubated for 48 hrs by sulforhodamine B assay relative to control
[33] = test system: HL-60(TB); test: Growth inhibition of human HL-60(TB) cells assessed as cell growth at 10 uM incubated for 48 hrs by sulforhodamine B assay relative to control
[34] = test system: HT-29; test: Growth inhibition of human HT-29 cells assessed as cell growth at 10 uM incubated for 48 hrs by sulforhodamine B assay relative to control
[35] = test system: RPMI-8226; test: Growth inhibition of human RPMI-8226 cells assessed as cell growth at 10 uM incubated for 48 hrs by sulforhodamine B assay relative to control
[36] = test system: U-251; test: Growth inhibition of human U-251 cells assessed as cell growth at 10 uM incubated for 48 hrs by sulforhodamine B assay relative to control
[37] = test system: MDA-MB-435; test: Growth inhibition of human MDA-MB-435 cells assessed as cell growth at 10 uM incubated for 48 hrs by sulforhodamine B assay relative to control
[38] = test system: UO-31; test: Growth inhibition of human UO-31 cells assessed as cell growth at 10 uM incubated for 48 hrs by sulforhodamine B assay relative to control
[39] = test system: MCF7; test: Growth inhibition of human MCF7 cells assessed as cell growth at 10 uM incubated for 48 hrs by sulforhodamine B assay relative to control
[40] = test system: SNB-19; test: Growth inhibition of human SNB-19 cells assessed as cell growth at 10 uM incubated for 48 hrs by sulforhodamine B assay relative to control

SMILES | growth at 10 µM [1] [%] | growth at 10 µM [2] [%] | growth at 10 µM [3] [%] | growth at 10 µM [4] [%] | growth at 10 µM [5] [%] | growth at 10 µM [6] [%] | growth at 10 µM [7] [%] | growth at 10 µM [8] [%] | growth at 10 µM [9] [%] | growth at 10 µM [10] [%] | growth at 10 µM [11] [%] | growth at 10 µM [12] [%] | growth at 10 µM [13] [%] | growth at 10 µM [14] [%] | growth at 10 µM [15] [%] | growth at 10 µM [16] [%] | growth at 10 µM [17] [%] | growth at 10 µM [18] [%] | growth at 10 µM [19] [%] | growth at 10 µM [20] [%] | other results
CC(=O)Nc1cc(CO)cc(NC(=O)c2ccccc2)c1 | 107 | 103 | 122 | 105 | 111 | 116 | 97.9 | 50.8 | 109 | 119 | 118 | 104 | 110 | 97.8 | 109 | 103 | 115 | 98.9 | 105 | 110 | growth at 10 µM [21]: 110%; growth at 10 µM [22]: 99.4%; growth at 10 µM [23]: 110%; growth at 10 µM [24]: 109%; growth at 10 µM [25]: 105%; growth at 10 µM [26]: 106%; growth at 10 µM [27]: 101%; growth at 10 µM [28]: 98.7%; growth at 10 µM [29]: 111%; growth at 10 µM [30]: 104%; growth at 10 µM [31]: 102%; growth at 10 µM [32]: 103%; growth at 10 µM [33]: 85.6%; growth at 10 µM [34]: 109%; growth at 10 µM [35]: 106%; growth at 10 µM [36]: 99.4%; growth at 10 µM [37]: 105%; growth at 10 µM [38]: 95.5%; growth at 10 µM [39]: 106%; growth at 10 µM [40]: 106%
CC(=O)Nc1cc(CO)cc(NC(=O)c2ccc(NC(=O)CCCN3CCOCC3)cc2)c1 | 103 | 110 | 92.5 | 99.8 | 101 | 109 | 93.4 | 98.3 | 109 | 114 | 121 | 98.3 | 87 | 102 | 130 | 106 | 106 | 110 | 104 | 107 | growth at 10 µM [21]: 96.7%; growth at 10 µM [22]: 104%; growth at 10 µM [23]: 126%; growth at 10 µM [24]: 103%; growth at 10 µM [25]: 115%; growth at 10 µM [26]: 97.8%; growth at 10 µM [27]: 104%; growth at 10 µM [28]: 99.5%; growth at 10 µM [29]: 97.6%; growth at 10 µM [30]: 101%; growth at 10 µM [31]: 105%; growth at 10 µM [32]: 98.7%; growth at 10 µM [33]: 106%; growth at 10 µM [34]: 104%; growth at 10 µM [35]: 93.6%; growth at 10 µM [36]: 105%; growth at 10 µM [37]: 100%; growth at 10 µM [38]: 86.6%; growth at 10 µM [39]: 102%; growth at 10 µM [40]: 99.4%
CC(=O)Nc1cc(CCl)cc(NC(=O)c2ccc(C(=O)Nc3cccc(NC(=O)CCCN(C)C)c3)cc2)c1 | 93 | 101 | 82 | 106 | 116 | 104 | 104 | 93 | 99 | 96 | 113 | 101 | 114 | 99 | 100 | 92 | 105 | 104 | 106 | 108 | growth at 10 µM [21]: 113%; growth at 10 µM [22]: 114%; growth at 10 µM [23]: 116%; growth at 10 µM [24]: 104%; growth at 10 µM [25]: 106%; growth at 10 µM [26]: 91%; growth at 10 µM [27]: 104%; growth at 10 µM [28]: 102%; growth at 10 µM [29]: 100%; growth at 10 µM [30]: 106%; growth at 10 µM [31]: 98%; growth at 10 µM [32]: 95%; growth at 10 µM [33]: 101%; growth at 10 µM [34]: 104%; growth at 10 µM [35]: 116%; growth at 10 µM [36]: 100%; growth at 10 µM [37]: 100%; growth at 10 µM [38]: 98%; growth at 10 µM [39]: 71%; growth at 10 µM [40]: 106%
